The numbers were not newly measured in patent publication US20030207327A1, “Coisogenic eukaryotic cell collections” (priority 2001, published 2003), which cites them from elsewhere.

Positions count from the first letter of the chain named. Read-outs that look alike come from different tables or passages of the source.

The target in series [1] is T1, TPMT (thiopurine S-methyltransferase) (Homo sapiens, UniProt P51580, Y240C).
T1 sequence (P51580 1-245 Y240C): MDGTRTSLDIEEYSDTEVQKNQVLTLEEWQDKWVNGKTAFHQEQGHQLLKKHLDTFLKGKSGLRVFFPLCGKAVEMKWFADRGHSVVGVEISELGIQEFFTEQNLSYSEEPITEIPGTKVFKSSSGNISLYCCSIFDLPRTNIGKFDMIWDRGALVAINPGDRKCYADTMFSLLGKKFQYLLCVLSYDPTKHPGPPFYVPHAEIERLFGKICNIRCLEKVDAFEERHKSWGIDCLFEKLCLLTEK
The settings on record: TPMT variant A719G, Tyr240Cys; OMIM 187680.

Series [2] has as its target T2, TPMT (thiopurine S-methyltransferase) (Homo sapiens, UniProt P51580, A80P).
T2 sequence (P51580 1-245 A80P): T1 sequence (P51580 1-245 Y240C) with A80P, C240Y
The settings on record: TPMT variant G238C, Ala80Pro; OMIM 187680.

Series [3] deals with T3, TPMT (thiopurine S-methyltransferase) (Homo sapiens, UniProt P51580, A154T).
T3 sequence (P51580 1-245 A154T): T1 sequence (P51580 1-245 Y240C) with A154T, C240Y
The settings on record: TPMT variant G460A, Ala154Thr; OMIM 187680.

For series [4], the target named is T4, TPMT (thiopurine S-methyltransferase) (Homo sapiens, UniProt P51580, R215H).
T4 sequence (P51580 1-245 R215H): T1 sequence (P51580 1-245 Y240C) with R215H, C240Y
The settings on record: TPMT variant G644A, Arg215His; OMIM 187680.

A further series relates to CYP2D6. The settings on record: protein variant Gly169Ter; poor drug metabolizer; OMIM 124030.
Series [5] concerns the target ABCB1 (MDR1, P-glycoprotein) (Homo sapiens, UniProt P08183, G185V).
Series [6] concerns beta tubulin (Isoform M40).

Sequence of ABCB1 (MDR1, P-glycoprotein) (P08183 whole entry G185V, canonical isoform): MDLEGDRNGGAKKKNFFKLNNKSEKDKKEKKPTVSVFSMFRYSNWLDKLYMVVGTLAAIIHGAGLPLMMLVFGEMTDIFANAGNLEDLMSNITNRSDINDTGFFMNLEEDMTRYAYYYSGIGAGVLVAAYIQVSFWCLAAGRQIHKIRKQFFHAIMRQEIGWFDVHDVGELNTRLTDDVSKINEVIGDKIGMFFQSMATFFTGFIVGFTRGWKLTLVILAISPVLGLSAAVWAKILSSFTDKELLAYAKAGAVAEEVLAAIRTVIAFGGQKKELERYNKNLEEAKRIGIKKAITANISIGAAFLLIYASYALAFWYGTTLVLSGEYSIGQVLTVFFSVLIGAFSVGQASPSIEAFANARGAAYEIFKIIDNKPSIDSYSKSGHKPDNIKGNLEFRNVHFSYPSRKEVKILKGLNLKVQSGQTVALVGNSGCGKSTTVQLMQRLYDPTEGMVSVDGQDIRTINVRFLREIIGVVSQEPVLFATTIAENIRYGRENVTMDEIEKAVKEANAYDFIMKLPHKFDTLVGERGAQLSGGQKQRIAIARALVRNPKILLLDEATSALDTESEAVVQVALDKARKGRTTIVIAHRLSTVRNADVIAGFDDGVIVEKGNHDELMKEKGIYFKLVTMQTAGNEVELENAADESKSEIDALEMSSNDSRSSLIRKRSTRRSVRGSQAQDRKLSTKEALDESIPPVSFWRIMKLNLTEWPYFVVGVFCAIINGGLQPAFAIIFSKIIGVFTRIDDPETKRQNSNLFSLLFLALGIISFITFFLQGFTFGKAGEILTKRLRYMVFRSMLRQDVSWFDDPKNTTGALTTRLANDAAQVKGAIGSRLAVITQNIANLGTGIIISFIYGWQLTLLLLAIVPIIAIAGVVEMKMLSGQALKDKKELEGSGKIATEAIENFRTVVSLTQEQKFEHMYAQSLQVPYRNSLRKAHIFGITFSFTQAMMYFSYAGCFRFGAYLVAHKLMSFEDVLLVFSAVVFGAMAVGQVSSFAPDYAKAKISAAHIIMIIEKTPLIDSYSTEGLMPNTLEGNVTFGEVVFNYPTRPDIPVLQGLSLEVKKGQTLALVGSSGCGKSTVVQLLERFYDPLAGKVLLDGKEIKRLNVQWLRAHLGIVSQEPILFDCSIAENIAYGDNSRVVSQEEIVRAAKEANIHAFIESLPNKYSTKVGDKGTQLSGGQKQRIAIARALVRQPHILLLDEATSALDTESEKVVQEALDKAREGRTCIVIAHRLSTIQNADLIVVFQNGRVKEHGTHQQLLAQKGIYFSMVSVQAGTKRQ

In the case of `Sc1ncnc2nc[nH]c12` [6-mercaptopurine], the Phenotype result in series [1], in series [2], in series [3] and in series [4] was “sensitivity” in each case.

`N=C(N)N1CCc2ccccc2C1` [Debrisoquine]: the Phenotype result with CYP2D6 is given as “Debrisoquine, poor”.

On to `COc1cc2c(c(OC)c1OC)-c1ccc(OC)c(=O)cc1[C@@H](NC(C)=O)CC2` [colchicine], for which the “Phenotype: colchicine resistance” value in series [5] was “increased”.

Turning to `CC(=O)O[C@H]1C(=O)[C@@]2(C)[C@H]([C@H](OC(=O)c3ccccc3)[C@]3(O)C[C@H](OC(=O)[C@H](O)[C@@H](NC(=O)c4ccccc4)c4ccccc4)C(C)=C1C3(C)C)[C@]1(OC(C)=O)CO[C@@H]1C[C@@H]2O` [paclitaxel], the “Phenotype (response to paclitaxel)” value in series [6] (beta tubulin variant Ala364Thr (G1092A)) and in series [6] (beta tubulin variant Phe270Val (T810G)) was “resistance” throughout.
